Laboratory results taken from ChEMBL document CHEMBL1201862, “PubChem BioAssay data set” (2004).
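A five-concentration, 48-hour dose response in 96-well plates underlies each endpoint, interpolated linearly between surrounding concentrations. GI50 is the concentration that inhibits growth by half.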 Activity calls are given as the source filed them. Cut-off read from the data, not from the text of the source: active = GI50 up to about 1.1 µM and inactive = higher.

Assays:
Assay in all cases: NCI tumour cell line growth inhibition, 48 h
[1] = test system: UO-31
[2] = test system: SNB-19
[3] = test system: NCI-H522
[4] = test system: NCI-H460
[5] = test system: SR
[6] = test system: NCI/ADR-RES
[7] = test system: U-251
[8] = test system: MDA-MB-231
[9] = test system: 786-0
[10] = test system: OVCAR-5
[11] = test system: MCF7
[12] = test system: UACC-257
[13] = test system: ACHN
[14] = test system: UACC-62
[15] = test system: SW-620
[16] = test system: KM12
[17] = test system: MDA-MB-435
[18] = test system: EKVX
[19] = test system: HOP-92
[20] = test system: HL-60

Which results are given for `Cl/C(=N\c1cccc2ccccc12)N(c1ccccc1)c1ccccc1`?
GI50 [1]: > 100 µM (inactive); GI50 [2]: > 100 µM (inactive); GI50 [3]: 41.2 µM (inactive); GI50 [4]: 28.4 µM (inactive); GI50 [5]: 25.4 µM (inactive); GI50 [6]: > 100 µM (inactive); GI50 [7]: 57.7 µM (inactive); GI50 [8]: > 100 µM (inactive); GI50 [9]: > 100 µM (inactive); GI50 [10]: > 100 µM (inactive); GI50 [11]: 35.2 µM (inactive); GI50 [12]: 70 µM (inactive); GI50 [13]: 66.7 µM (inactive); GI50 [14]: 75.2 µM (inactive); GI50 [15]: 92.7 µM (inactive); GI50 [16]: 75 µM (inactive); GI50 [17]: > 100 µM (inactive)

What does the source list for `CNC/C(Cl)=N/S(=O)(=O)c1ccc(C)cc1`?
GI50 [1]: 12.1 µM (inactive); GI50 [2]: 20.4 µM (inactive); GI50 [3]: 6.58 µM (inactive); GI50 [4]: 8.17 µM (inactive); GI50 [18]: 15.6 µM (inactive); GI50 [5]: 3.84 µM (inactive); GI50 [6]: 26.1 µM (inactive); GI50 [7]: 6.93 µM (inactive); GI50 [8]: 13.7 µM (inactive); GI50 [9]: 9.93 µM (inactive); GI50 [10]: 21 µM (inactive); GI50 [11]: 7.94 µM (inactive); GI50 [19]: 14.8 µM (inactive); GI50 [12]: 9.27 µM (inactive); GI50 [13]: 15.8 µM (inactive); GI50 [14]: 9.64 µM (inactive); GI50 [15]: 9.16 µM (inactive); GI50 [16]: 13.8 µM (inactive); GI50 [17]: 6.15 µM (inactive)

For `c1ccc(/C(=N/Nc2ccncn2)c2ccccn2)cc1`, which GI50 [1] is on record?
Its GI50 is 15.5 µM (inactive).

And the GI50 [2]?
The GI50 was 46.8 µM (inactive).

What about the GI50 [3] of the same compound?
Its GI50 is 0.776 µM (active).

What about the GI50 [4] of the same compound?
Its GI50 is 30.1 µM (inactive).

And the GI50 [18]?
Its GI50 is 4.34 µM (inactive).

What about the GI50 [5] of the same compound?
Its GI50 is 10.5 µM (inactive).

And the GI50 [6]?
Its GI50 is 18.4 µM (inactive).

What about the GI50 [7] of the same compound?
Its GI50 is 39.6 µM (inactive).

What about the GI50 [8] of the same compound?
Its GI50 is 32.2 µM (inactive).

What about the GI50 [9] of the same compound?
Its GI50 is 17.8 µM (inactive).

What about the GI50 [10] of the same compound?
The GI50 was 34.5 µM (inactive).

What about the GI50 [11] of the same compound?
The GI50 was 8.51 µM (inactive).

What about the GI50 [12] of the same compound?
The GI50 was 20.9 µM (inactive).

And the GI50 [13]?
Its GI50 is 5.82 µM (inactive).

And the GI50 [14]?
Its GI50 is 26.4 µM (inactive).

What about the GI50 [15] of the same compound?
The GI50 was 6.32 µM (inactive).

And the GI50 [16]?
The GI50 was 22 µM (inactive).

And the GI50 [17]?
Its GI50 is 48.6 µM (inactive).

With `COc1ccc(C[n+]2cccc(O)c2)cc1` as the compound, how does the GI50 [1] read?
Its GI50 is > 100 µM (inactive).

What about the GI50 [2] of the same compound?
Its GI50 is > 100 µM (inactive).

And the GI50 [4]?
The GI50 was > 100 µM (inactive).

And the GI50 [18]?
The GI50 was > 100 µM (inactive).

And the GI50 [5]?
The GI50 was > 100 µM (inactive).

And the GI50 [6]?
The GI50 was > 100 µM (inactive).

What about the GI50 [7] of the same compound?
The GI50 was > 100 µM (inactive).

And the GI50 [8]?
The GI50 was > 100 µM (inactive).

And the GI50 [9]?
Its GI50 is > 100 µM (inactive).

What about the GI50 [10] of the same compound?
Its GI50 is > 100 µM (inactive).

And the GI50 [11]?
The GI50 was > 100 µM (inactive).

And the GI50 [19]?
Its GI50 is > 100 µM (inactive).

And the GI50 [20]?
Its GI50 is > 100 µM (inactive).

And the GI50 [13]?
Its GI50 is > 100 µM (inactive).

And the GI50 [14]?
Its GI50 is > 100 µM (inactive).

And the GI50 [15]?
Its GI50 is > 100 µM (inactive).

What about the GI50 [16] of the same compound?
The GI50 was > 100 µM (inactive).

What about the GI50 [17] of the same compound?
The GI50 was > 100 µM (inactive).

Which GI50 [1] does the source give for `Cc1ccc(/C=N/Nc2cc(C)c3ccccc3n2)s1` here?
The GI50 was > 100 µM (inactive).

What about the GI50 [2] of the same compound?
Its GI50 is 41.6 µM (inactive).

And the GI50 [3]?
The GI50 was 4.06 µM (inactive).

And the GI50 [18]?
Its GI50 is 4.84 µM (inactive).

And the GI50 [5]?
The GI50 was 6.38 µM (inactive).

What about the GI50 [6] of the same compound?
Its GI50 is 11.1 µM (inactive).

And the GI50 [7]?
The GI50 was 16.8 µM (inactive).

What about the GI50 [8] of the same compound?
Its GI50 is 0.44 µM (active).

And the GI50 [9]?
The GI50 was 18.7 µM (inactive).

And the GI50 [10]?
The GI50 was 15.6 µM (inactive).

What about the GI50 [11] of the same compound?
The GI50 was 12 µM (inactive).

What about the GI50 [19] of the same compound?
Its GI50 is 27.2 µM (inactive).

And the GI50 [12]?
Its GI50 is 7.53 µM (inactive).

And the GI50 [20]?
Its GI50 is 33.2 µM (inactive).

And the GI50 [13]?
Its GI50 is 20.1 µM (inactive).

What about the GI50 [14] of the same compound?
Its GI50 is 23.4 µM (inactive).

What about the GI50 [15] of the same compound?
The GI50 was 21.7 µM (inactive).

What about the GI50 [16] of the same compound?
Its GI50 is 16.4 µM (inactive).

What about the GI50 [17] of the same compound?
The GI50 was 21.2 µM (inactive).

Which results are given for `C=CCc1ccccc1C1CC2(C(=O)OC)OC1C(C(=O)OC)=C2C(=O)OC` (configuration not stated)?
GI50 [1]: > 10 µM (inactive); GI50 [2]: > 10 µM (inactive); GI50 [4]: > 10 µM (inactive); GI50 [18]: > 10 µM (inactive); GI50 [5]: > 10 µM (inactive); GI50 [6]: > 10 µM (inactive); GI50 [7]: > 10 µM (inactive); GI50 [8]: > 10 µM (inactive); GI50 [9]: > 10 µM (inactive); GI50 [10]: > 10 µM (inactive); GI50 [11]: > 10 µM (inactive); GI50 [12]: > 10 µM (inactive); GI50 [20]: > 10 µM (inactive); GI50 [13]: > 10 µM (inactive); GI50 [14]: > 10 µM (inactive); GI50 [15]: > 10 µM (inactive); GI50 [16]: > 10 µM (inactive); GI50 [17]: > 10 µM (inactive)

Which results are given for `COC(=O)c1c(O)ccc2c1c1c(n2CCc2ccccc2)C(=O)c2ccccc2C1=O`?
GI50 [1]: 10.8 µM (inactive); GI50 [2]: 17.5 µM (inactive); GI50 [3]: 7.08 µM (inactive); GI50 [4]: 4.11 µM (inactive); GI50 [18]: 20.7 µM (inactive); GI50 [5]: 5.28 µM (inactive); GI50 [6]: 6.9 µM (inactive); GI50 [7]: 12.7 µM (inactive); GI50 [8]: 14.6 µM (inactive); GI50 [9]: 16.7 µM (inactive); GI50 [10]: 20.2 µM (inactive); GI50 [11]: 9.02 µM (inactive); GI50 [19]: 16.3 µM (inactive); GI50 [12]: 17.7 µM (inactive); GI50 [20]: 17.8 µM (inactive); GI50 [13]: 11.9 µM (inactive); GI50 [15]: 13.2 µM (inactive); GI50 [16]: 12.2 µM (inactive); GI50 [17]: 7.03 µM (inactive)

Which results are given for `NC(=O)c1nnsc1NN=O`?
GI50 [1]: > 100 µM (inactive); GI50 [2]: > 100 µM (inactive); GI50 [3]: > 100 µM (inactive); GI50 [4]: > 100 µM (inactive); GI50 [18]: > 100 µM (inactive); GI50 [5]: > 100 µM (inactive); GI50 [6]: > 100 µM (inactive); GI50 [7]: > 100 µM (inactive); GI50 [8]: > 100 µM (inactive); GI50 [9]: > 100 µM (inactive); GI50 [10]: > 100 µM (inactive); GI50 [11]: > 100 µM (inactive); GI50 [12]: > 100 µM (inactive); GI50 [20]: > 100 µM (inactive); GI50 [13]: > 100 µM (inactive); GI50 [14]: > 100 µM (inactive); GI50 [15]: > 100 µM (inactive); GI50 [16]: > 100 µM (inactive); GI50 [17]: > 100 µM (inactive)
